Measured values reported in ChEMBL document CHEMBL1151784, “Antibiotic evaluation and in vivo analysis of alkynyl Coenzyme A antimetabolites in Escherichia coli” (2008).
In brackets after ≈: the same amount, converted by molar mass.

What was measured:
Assay type in all cases: functional
Settings in all cases: K12, 24 h
Escherichia coli [1] = assay: Antibacterial activity against Escherichia coli K12 in M9 minimal medium after 24 hrs by broth dilution method
Escherichia coli [2] = assay: Antibacterial activity against Escherichia coli K12 in tryptone broth after 24 hrs by broth dilution method
Escherichia coli [3] = assay: Antibacterial activity against Escherichia coli K12 in M9 minimal medium after 24 hrs by broth dilution method in presence of pantothenate
Escherichia coli [4] = assay: Antibacterial activity against Escherichia coli K12 in M9 minimal medium after 24 hrs by broth dilution method in presence of beta-alanine

| SMILES | MIC (Escherichia coli [1]) [µM] | MIC (Escherichia coli [2]) [µM] | MIC (Escherichia coli [3]) [µM] | MIC (Escherichia coli [4]) [µM] |
| --- | --- | --- | --- | --- |
| C#CCNC(=O)[C@H](O)C(C)(C)CO | 500 (≈ 92.6 µg/mL) | > 500 | – | – |
| C#CCNC(=O)CCNC(=O)[C@H](O)C(C)(C)CO | 4 (≈ 1.03 µg/mL) | > 500 | > 500 | > 500 |
| C#CCCNC(=O)CCNC(=O)[C@H](O)C(C)(C)CO | 7.5 (≈ 2.03 µg/mL) | > 500 | > 500 | > 500 |
| CCC(=O)NCCNC(=O)CCNC(=O)[C@H](O)C(C)(C)CO | > 500 | > 500 | – | – |
| C=CC(=O)NCCNC(=O)CCNC(=O)[C@H](O)C(C)(C)CO | 500 (≈ 158 µg/mL) | > 500 | – | – |
| C#CCCC(=O)NCCNC(=O)CCNC(=O)[C@H](O)C(C)(C)CO | > 500 | > 500 | – | – |
| C#CCCCNC(=O)CCNC(=O)[C@H](O)C(C)(C)CO | 15 (≈ 4.27 µg/mL) | > 500 | > 500 | > 500 |
| CCCNC(=O)CCNC(=O)[C@H](O)C(C)(C)CO | 1 (≈ 0.26 µg/mL) | 500 (≈ 130 µg/mL) | 500 | 250 |
| CCC(=O)OCCNC(=O)CCNC(=O)[C@H](O)C(C)(C)CO | 500 (≈ 159 µg/mL) | > 500 | – | – |
| C#CCCCCNC(=O)CCNC(=O)[C@H](O)C(C)(C)CO | 500 (≈ 149 µg/mL) | > 500 | – | – |
| CC(C)(CO)[C@@H](O)C(=O)NCCC(=O)NCCN=[N+]=[N-] | > 500 | > 500 | – | – |
| C=CCNC(=O)CCNC(=O)[C@H](O)C(C)(C)CO | 3 (≈ 0.775 µg/mL) | > 500 | 250 | 125 |
| CCCCCNC(=O)CCNC(=O)[C@H](O)C(C)(C)CO | 6 (≈ 1.73 µg/mL) | 50 (≈ 14.4 µg/mL) | 500 | 250 |
| C#CC(=O)NCCNC(=O)CCNC(=O)[C@H](O)C(C)(C)CO | > 500 | > 500 | – | – |
| CCOC(=O)NCCNC(=O)CCNC(=O)[C@H](O)C(C)(C)CO | > 500 | > 500 | – | – |
